Assay results taken from US7556939B2, “Identification and characterization of racemases, definition of protein signatures, and a test for detecting D-amino acid and for screening molecules capable of inhibiting the activity of racemase, especially proline racemase” (Institut Pasteur, priority 2003, dated 2009).
Values joined by “and” are separate entries in the source; they are usually repeats but may differ in a detail not shown here. Equal entries are not always repeated.

Experiments:
D-AAO [1] = molecular target: T1, D-AAO (Sus scrofa, UniProt P00371); test: D-AAO/HRP microplate test for detection of D-amino acids; assay type: biochemical, swine
T1 construct: purchased Sigma A-5222; host or cells: swine kidney
Description: (§1) • (3) Prepare a mixture containing the enzymes (D-AAO/HRP Mix), as follows: The amounts are given for one well, provided that the final volume will be 100 μl with the racemase products or the substrate:
(§2) This mixture is kept in the ice until use. • (4) The quantitation reaction starts when 13 μl of D-AAO/HRP mix is added to the reaction well. • (5) The microplate is covered with an adhesive coverlid and it is left in the dark at 37° C. between […] and 2 hours. The reaction can be monitored by eye whenever a color gradient matches the D-amino acid concentration of the standard dilutions. • (6) The microplate is read with a microplate spectrophotometer using a filter of at 490 nm.
The D-AAO/HRP test described here above can also be used for this purpose with slight modifications. For that purpose, the racemase reaction step should be skipped and the microplate test should start straightforward at the II-1-2.1-2 step described above with the following remarks:
1) Standard: It should not be an equimolar mixture of D- and L-amino acid, but rather a serial dilution of D-Amino acids. The choice of amino acid is made according to the interest of the D-amino acid under investigation. The final volume in wells should be of 87 μl.
2) Negative control: It is made with the L-enantiomer of the D-amino acid under investigation. The final volume should be 87 μl.
3) Blank: It is made with 87 μl buffer*. (See paragraph II.1.1 Materials.)
4) Samples: The samples to be tested should be adjusted to pH 8,3 with buffer* and their final volumes should be of 87 μl per well.
Obs: Standards, negative controls, samples to test and blanks should be made in duplicates. They are dispensed into the wells of the microplate.
5) Then, the procedure follows steps 3) to 6), as above.
Different L- and D-amino acids were tested, namely Tyrosine (Tyr), Valine (Val), Threonine (Thr), Glutamic acid (Glu), Lysine (Lys) and Tryptophan (Try).

TcPRAC [2] = molecular target: T2, TcPRAC (Trypanosoma cruzi, UniProt Q4DA80); settings: cited from earlier work
T2 construct: made in house

D-AAO [3] = molecular target: T1, D-AAO; test: D-AAO/HRP reaction on D-proline in presence of PAC or L-proline; assay type: biochemical, swine; settings: D-Proline 0.1 mM to 40 mM, OD 490 nm
rTcPRACA = molecular target: T3, rTcPRACA (Trypanosoma cruzi, UniProt Q4DA80); test: Kinetic and inhibition assays of L-proline racemization, polarimetric; assay type: biochemical
T3 construct: resulting TcPRACA* fragment encoding for the mature proline racemase was purified and cloned; His6 (C); made in house; host or cells: E. coli BL21 (DE3)
Description: (§3) The progress of racemization reaction was monitored polarimetrically, as previously described (13). […] Values obtained were confirmed by using the Kaleïdagraph® program and Michaelis-Menten equation. […] C.
(§4) Optical rotation was measured every 5 sec during 10 min and every 5 min to 1 hour. […] Calculations were done using the Kaleïdagraph program. […] Graphic representation and linear curve regression allowed the determination of Ki as [PAC]/[(slope with PAC/slope without PAC)−1]. All reagents were purchased from Sigma.

rTcPRACB = rTcPRACB (Trypanosoma cruzi, UniProt Q868H8); test: as above; assay type: biochemical
Description: as §3, §4

[4] = system: non-infected monkey cell cultures
TcPRAC [5] = molecular target: T2, TcPRAC; test: D-AAO/HRP microplate test of racemisation inhibition; assay type: biochemical; settings: concentration giving 50% inhibition of racemisation
Description: (1) The volumes are indicated for a single well, but duplicates are mandatory. Leave enough raws of the microplate empty for standard and controls to be used in further steps. Distribute the following volumes per well reactions: • a) without inhibitor (Vol=QS 81 μl)
A range of concentrations between 5 mM and 1 mM can be planned for the inhibitor. It should be diluted in sodium acetate buffer 0.2 M pH 6.0.
• (2) Cover the microplate with an adhesive coverlid and leave for […] at 37° C. • (3) At the end of racemisation, 5.5 μl of 0.235M Pop are added in each reaction well of the microplate in order to shift pH from pH6.0 to pH 8.3.
It is used for assessing the amount of D-Proline formed after racemization. The standard range is made in microtubes, as follows:
as §1, §2

TcPRAC [6] = molecular target: T2, TcPRAC; test: Racemisation inhibition, detection with polarimeter; assay type: biochemical
Description: (§5) The reaction was stopped by incubating for 10 min at 80° C. and freezing. Water (1 ml) was then added, and the optical rotation was measured in a polarimeter 241 MC (Perkin Elmer, Montigny le Bretonneux, France) at a wavelength of 365 nm, in a cell with a path length of 10 cm, at a precision of 0.001 degree. […] All reagents were purchased from Sigma.

B cell = settings: cited from earlier work
[7] = Stability of recombinant proline racemases under different storage conditions; assay type: physicochemical
Description: After purification on nickel-nitrilotriacetic acid agarose column, recombinant proteins were kept for 10 days in nickel column buffer (20 mM Tris/500 mM NaCl/500 mM imidazol, pH 8.0) at room temperature (RT) or at +4° C., or either diluted in 50% glycerol and maintained at −20° C. (Gly/−20° C.) or in optimum pH buffer (NaOAc, pH 6.0) at 4° C. Recombinant enzymes were precipitated in (NH4)2SO4 and kept in solution at 4° C. or pellet dried at −20° C. Racemase assays were performed for 30 min at 37° C.

[8] = Racemization assays, polarimetric; assay type: biochemical; settings: for % racemization / Optical rotation: 5 μg protein, 40 mM L-proline, pH 6.0, 37° C.
Description: as §5
Optical rotation was measured and % of racemization was determined as described in Example 5.
Optical rotation was measured at different times and % of racemization was determined as described in Example 5.

Trypanosoma cruzi = test: Immunization of mice and infectious challenge with live Trypanosoma cruzi; assay type: in vivo; settings: mice, sub-mitogenic doses
[9] = L-enantiomers, 12.5 mM, duplicate wells
[10] = D-enantiomers, 6.25 mM, duplicate wells

T1 sequence (P00371 whole entry): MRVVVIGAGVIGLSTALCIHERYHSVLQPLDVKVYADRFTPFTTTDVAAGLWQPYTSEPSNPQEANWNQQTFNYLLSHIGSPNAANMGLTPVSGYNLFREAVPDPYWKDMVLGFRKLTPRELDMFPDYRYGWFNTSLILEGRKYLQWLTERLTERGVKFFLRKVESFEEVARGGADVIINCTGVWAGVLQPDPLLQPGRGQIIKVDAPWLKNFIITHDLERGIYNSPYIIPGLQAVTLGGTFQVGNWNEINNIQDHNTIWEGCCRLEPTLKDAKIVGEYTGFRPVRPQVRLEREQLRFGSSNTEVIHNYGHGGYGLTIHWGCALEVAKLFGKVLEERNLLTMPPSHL
Sequence of rTcPRACB (Q868H8 whole entry): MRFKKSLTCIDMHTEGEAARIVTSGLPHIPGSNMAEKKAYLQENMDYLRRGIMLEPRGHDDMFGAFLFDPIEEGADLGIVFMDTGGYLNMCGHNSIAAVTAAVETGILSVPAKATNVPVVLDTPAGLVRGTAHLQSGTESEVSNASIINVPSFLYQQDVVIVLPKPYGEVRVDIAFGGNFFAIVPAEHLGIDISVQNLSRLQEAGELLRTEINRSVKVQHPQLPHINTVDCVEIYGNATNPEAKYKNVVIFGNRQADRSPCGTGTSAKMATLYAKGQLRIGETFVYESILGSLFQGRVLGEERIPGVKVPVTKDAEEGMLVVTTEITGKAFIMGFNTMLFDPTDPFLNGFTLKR

Molecule: C[C@@H](O)[C@H](N)C(=O)O [L-Thr, Threonine]
- Optical density at 490 nm (D-AAO [1]; [9]): 0.124 and 0.128

Molecule: N[C@@H](Cc1ccc(O)cc1)C(=O)O [D-Tyr, Tyrosine]
- Optical density at 490 nm (D-AAO [1]; [10]): 1.317 and 0.991

Molecule: NCCCC[C@H](N)C(=O)O [L-Lys, Lysine]
- Optical density at 490 nm (D-AAO [1]; [9]): 0.125 and 0.131

Molecule: N[C@@H](CCC(=O)O)C(=O)O [L-Glu, Glutamic acid]
- Optical density at 490 nm (D-AAO [1]; [9]): 0.131 and 0.141

Molecule: CC(C)[C@H](N)C(=O)O [L-Val, Valine]
- Optical density at 490 nm (D-AAO [1]; [9]): 0.135 and 0.129

Molecule: O=C(O)[C@H]1CCCN1 [D-pro, D-proline]
- Optical density at 490 nm (D-AAO [1]; 0.05 mM): 0.173
- Optical density at 490 nm (D-AAO [1]; 0.09 mM): 0.213 and 0.215
- Optical density at 490 nm (D-AAO [1]; 0.19 mM): 0.308 and 0.32
- Optical density at 490 nm (D-AAO [1]; 0.39 mM): 0.496 and 0.504
- Optical density at 490 nm (D-AAO [1]; 0.77 mM): 0.809 and 0.824
- Optical density at 490 nm (D-AAO [1]; 1.55 mM): 1.234 and 1.221
- Optical density at 490 nm (D-AAO [1]; 3.09 mM): 1.716 and 1.879
- Optical density at 490 nm (D-AAO [1]; 6.19 mM): 1.983 and 1.949
- Optical density at 490 nm (D-AAO [1]; 12.37 mM): 1.814 and 1.976
- Optical density at 490 nm (D-AAO [1]; 24.75 mM): 1.757 and 1.885
- Optical density at 490 nm (D-AAO [1]; 49.5 mM): 1.961 and 2.004

Molecule: NC(=O)CI [iodoacetamide]
- TcPRAC enzymatic activity after alkylation (TcPRAC [2]): abolished

Molecule: N[C@@H](Cc1c[nH]c2ccccc12)C(=O)O [D-Try, Tryptophan]
- Optical density at 490 nm (D-AAO [1]; [10]): 0.615 and 0.662

Molecule: O=C(O)CI [iodoacetate]
- TcPRAC enzymatic activity after alkylation (TcPRAC [2]): abolished

Molecule: N[C@@H](CCC(=O)O)C(=O)O [D-Glu, Glutamic acid]
- Optical density at 490 nm (D-AAO [1]; [10]): 0.147 and 0.116

Molecule: C[C@@H](O)[C@H](N)C(=O)O [D-Thr, Threonine]
- Optical density at 490 nm (D-AAO [1]; [10]): 0.215 and 0.157

Molecule: CC(C)[C@H](N)C(=O)O [D-Val, Valine]
- Optical density at 490 nm (D-AAO [1]; [10]): 1.683 and 1.612

Molecule: O=C(O)c1ccc[nH]1 [PAC, pyrrole-2-carboxylic acid]
- influence on DAAO/HRP reaction (D-AAO [3]): does not influence
- Ki (rTcPRACA): 5.7 µM
- Ki (rTcPRACB): 3.6 µM
- interference with cellular growth [4]: do not interfere with cellular growth
- IC50 (TcPRAC [5]; 10 mM L-Proline): 45 µM and 50 µM
- IC50 (TcPRAC [5]; 20 mM L-Proline): 170 µM
- IC50 (TcPRAC [5]; 40 mM L-Proline): 220 µM
- IC50 (TcPRAC [6]): 1 mM
- effect of TcPRAC inhibition on TcPRAC B cell mitogenic ability (B cell): total loss

Molecule: N[C@@H](Cc1ccc(O)cc1)C(=O)O [L-Tyr, Tyrosine]
- Optical density at 490 nm (D-AAO [1]; [9]): 0.193 and 0.141

Molecule: NCCCC[C@H](N)C(=O)O [D-Lys, Lysine]
- Optical density at 490 nm (D-AAO [1]; [10]): 0.243 and 0.157

Molecule: N[C@@H](Cc1c[nH]c2ccccc12)C(=O)O [L-Try, Tryptophan]
- Optical density at 490 nm (D-AAO [1]; [9]): 0.131 and 0.138

B1: rTcPRACA: recombinant C-terminal His6-tagged T. cruzi proline racemase, 45 kDa secreted isoform, produced in E. coli (protein)
chain: GQEKLLFDQKYKIIKGEKKEKKKNQRANRREHQQKREIMRFKKSFTCIDMHTEGEAARIVTSGLPHIPGSNMAEKKAYLQENMDYLRRGIMLEPRGHDDMFGAFLFDPIEEGADLGMVFMDTGGYLNMCGHNSIAAVTAAVETGIVSVPAKATNVPVVLDTPAGLVRGTAHLQSGTESEVSNASIINVPSFLYQQDVVVVLPKPYGEVRVDIAFGGNFFAIVPAEQLGIDISVQNLSRLQEAGELLRTEINRSVKVQHPQLPHINTVDCVEIYGPPTNPEANYKNVVIFGNRQADRSPCGTGTSAKMATLYAKGQLRIGETFVYESILGSLFQGRVLGEERIPGVKVPVTKDAEEGMLVVTAEITGKAFIMGFNTMLFDPTDPFKNGFTLKQ
modifications: left off: small tags and cut ends
notes: recombinant C-terminal His6-tagged T. cruzi proline racemase, 45 kDa secreted isoform, produced in E. coli
- % of preservation of proline racemase activity ([7]; 10 days, 50% glycerol, −20° C. (Gly/−20° C.)): 62.9%
- % of preservation of proline racemase activity ([7]; 10 days, NaOAc pH 6, 4° C.): 31.0%
- % of preservation of proline racemase activity ([7]; 10 days, column buffer pH 8.0, +4° C.): 65% and 66.5%
- % of preservation of proline racemase activity ([7]; 10 days, column buffer pH 8.0, RT): 16.0%
- loss of activity ([7]; 10 days, room temperature, 0.5 M imidazol buffer pH 8.0): 84%
- % of preservation of proline racemase activity ([7]; (NH4)2SO4 precipitated, in solution, 4° C.): 53.9%
- % of preservation of proline racemase activity ([7]; (NH4)2SO4 precipitated, pellet dried, −20° C.): 100.0%
- % of preservation of proline racemase activity ([7]; CTRL, freshly purified proteins): 100.0%
- temperature of maximal enzyme activity [8]: 37 °C
- % racemization ([8]; 0 min): 0%
- Optical rotation ([8]; 0 min): −0.385
- enzyme activity after heating ([8]; 5 min at 80° C.): abolished
- % racemization ([8]; 10 min): 22%
- Optical rotation ([8]; 10 min): −0.300
- % racemization ([8]; 30 min): 58%
- Optical rotation ([8]; 30 min): −0.162
- % racemization ([8]; 60 min): 77%
- Optical rotation ([8]; 60 min): −0.088

B2: TcPRAC: Trypanosoma cruzi proline racemase, B cell mitogen, used for immunization of mice (protein)
chain: GQEKLLFDQKYKIIKGEKKEKKKNQRANRREHQQKREIMRFKKSFTCIDMHTEGEAARIVTSGLPHIPGSNMAEKKAYLQENMDYLRRGIMLEPRGHDDMFGAFLFDPIEEGADLGMVFMDTGGYLNMCGHNSIAAVTAAVETGIVSVPAKATNVPVVLDTPAGLVRGTAHLQSGTESEVSNASIINVPSFLYQQDVVVVLPKPYGEVRVDIAFGGNFFAIVPAEQLGIDISVQNLSRLQEAGELLRTEINRSVKVQHPQLPHINTVDCVEIYGPPTNPEANYKNVVIFGNRQADRSPCGTGTSAKMATLYAKGQLRIGETFVYESILGSLFQGRVLGEERIPGVKVPVTKDAEEGMLVVTAEITGKAFIMGFNTMLFDPTDPFKNGFTLKQ
modifications: left off: small tags and cut ends
notes: Trypanosoma cruzi proline racemase, B cell mitogen, used for immunization of mice
- specific antibody responses directed to TcPRAC (Trypanosoma cruzi): high levels of specific antibody responses
- immunoprotection against infectious challenge (Trypanosoma cruzi; challenge with live Trypanosoma cruzi): high levels of immunoprotection
